Results on one compound are retold here after paper doi:10.1101/2020.04.24.059154v2 (biorxiv, 2021).

The target of the experiment is T1, AfLPMO16 (Aspergillus fumigatus, UniProt A0A7D5FGU2).
T1 sequence (A0A7D5FGU2 20-290 limits assumed): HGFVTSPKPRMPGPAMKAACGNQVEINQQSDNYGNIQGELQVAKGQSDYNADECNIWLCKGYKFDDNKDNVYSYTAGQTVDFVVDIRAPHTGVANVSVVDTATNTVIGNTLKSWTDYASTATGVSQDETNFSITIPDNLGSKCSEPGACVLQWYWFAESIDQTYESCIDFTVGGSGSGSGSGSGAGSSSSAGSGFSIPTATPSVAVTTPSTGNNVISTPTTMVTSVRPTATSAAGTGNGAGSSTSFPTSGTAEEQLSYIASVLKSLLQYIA
The experiment is described as follows: spectrophotometric 1-coerulignone formation at […] nm, Lineweaver-Burk plot. In kind it is biochemical. The following applies: 5 uM hydrogen peroxide as co-substrate, 100 mM phosphate buffer pH 6.0, 30 C.

As for `COc1cccc(OC)c1O` [2,6-dimethoxyphenol], the Km (usually the concentration of substrate that gives half-maximal velocity) was 5.4 mM.
